Test results as given in US20140000883A1, “PETROLEUM RECOVERY PROCESS AND SYSTEM” (Shell Oil Company, priority 2012, published 2014).
“And” between values parts separate entries of the source, which are not always exact repeats. Equal values may be shown once. Read-outs that look alike come from different tables or passages of the source.

Key:
[1] = Extraction of mined oil sands with solvents (bitumen recovery);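 on Recovered Bitumen: Bitumen mass includes 3 to 7 wt% residual solvent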
Experimental: The quality of dimethyl sulfide as an oil recovery agent based on the miscibility of dimethyl sulfide with a crude oil relative to other compounds was evaluated. […] Each oil sands sample was weighed and placed in a cellulose extraction thimble that was placed on a porous polyethylene support disk in a jacketed glass cylinder with a drip rate control valve. Each oil sands sample was then extracted with a selected solvent at a selected temperature (10° C. or 30° C.) in a cyclic contact and drain experiment, where the contact time ranged from 15 to 60 minutes. Fresh contacting solvent was applied and the cyclic extraction repeated until the fluid drained from the apparatus became pale brown in color.
The extracted fluids were stripped of solvent using a rotary evaporator and thereafter vacuum dried to remove residual solvent. […] The residual solids and extraction thimble were air dried, weighed, and then vacuum dried. […] Collectively, the weight of the solid or sample and thimble recovered after extraction plus the quantity of bitumen recovered after extraction divided by the weight of the initial oil sands sample plus the thimble provide the mass closure for the extractions.

[2] = SARA analysis of extracted bitumen samples; conditions: bitumen extracted at 30° C.
Experimental: The bitumen samples extracted at 30° C. from each oil sands sample were evaluated by SARA analysis to determine the saturates, aromatics, resins, and asphaltenes composition of the bitumen samples extracted by each solvent.

[3] = extraction at 10 C., not corrected for residual solvent
[4] = extraction at 30 C., not corrected for residual solvent

SMILES: C1CCOC1 [Tetrahydrofuran, tetrahydrofuran]
- Weight Change ([1]; extraction at 10 C.): 17.7 g
- Recovered Bitumen [1, 3]: 16.72 g
- Weight Change ([1]; extraction at 30 C.): 18.0 g
- Recovered Bitumen [1, 4]: 17.67 g

SMILES: S=C=S [Carbon Disulfide, carbon disulfide]
- Weight Change ([1]; extraction at 10 C.): 16.8 g
- Recovered Bitumen [1, 3]: 16.62 g
- Weight Change ([1]; extraction at 30 C.): 16.4 g
- Recovered Bitumen [1, 4]: 16.43 g

SMILES: Cc1ccccc1C [o-Xylene, o-xylene]
- Weight Change ([1]; extraction at 10 C.): 17.3 g
- Recovered Bitumen [1, 3]: 17.36 g
- Weight Change ([1]; extraction at 30 C.): 19.5 g
- Recovered Bitumen [1, 4]: 17.37 g

SMILES: ClCCl [Dichloromethane, dichloromethane]
- Weight Change ([1]; extraction at 10 C.): 18.9 g
- Recovered Bitumen [1, 3]: 17.66 g
- Weight Change ([1]; extraction at 30 C.): 17.7 g
- Recovered Bitumen [1, 4]: 16.30 g

SMILES: CCOC(C)=O [Ethyl Acetate, ethyl acetate]
- extraction of / miscibility with asphaltenes [2]: much less effective
- Weight Change ([1]; extraction at 10 C.): 11.2 g
- Recovered Bitumen [1, 3]: 10.32 g
- Weight Change ([1]; extraction at 30 C.): 17.7 g
- Recovered Bitumen [1, 4]: 11.46 g

SMILES: ClC(Cl)Cl [Chloroform, chloroform]
- Recovered Bitumen [1]: 17.85 g and 18.62 g
- Weight Change [1]: 18.7 g and 19.4 g
